Laboratory results reported in PMC9072125 (RSC Advances, 2019).

Test system: LfDAPDH
Conditions: 200 mM NH4Cl, 0.5 mM NADPH, 50 mM Na2CO3/NaHCO3 pH 9.0, 30 °C; reductive amination

O=C(O)C(=O)Cc1ccccc1 [PPA]
Km: 7.61 ± 0.14 mM
